What all share (type): physicochemical
Data set [1] in a line: Solubility of aceclidine in exemplary formulations. The conditions noted are these: for Aceclidine solubility: Unsaturated. On the procedure: An appropriate amount of aceclidine was dissolved in various MCT (to obtain a mixed solution), then SFA (F6H8 or F4H5) was added to the solution in the indicated proportions and the solution was mixed well with magnetic stirring.
Data set [2] can be described thus: Solubility of aceclidine in F6H8, MCT and 10% MCT in F6H8 by GC. The conditions noted are these: GC method. On the procedure: 5 mg aceclidine was added into a PP tube, 1 ml of F6H8 was added, the PP tube was shaken for about 5 minutes and aceclidine was completely dissolved in the solution. Further 18 mg aceclidine was added, and shaking was continued until no insoluble substance was found. […] The phenomenon disappeared after re-shaking.
The above formulations were centrifuged and the supernatants filtered through 0.45 micron filters without further dilution. One sample was prepared from each solvent for GC analysis.
The GC protocols and parameters are listed below:
Injection Volume: 0.5 ul (Direct injection)
Detector Temp (FID): 300° C.
Gradient: 70° C. (hold 2 min)→12° C./min→280° C. (hold 7 min)
20 mg aceclidine was added into a PP tube, and 1 ml MCT was added. The PP tube was shaken for about 5 minutes and the resulting solution became clear. Further 40 mg of aceclidine was added. The PP tube was shaken again. […] The phenomenon disappeared after re-shaking. A small sample was taken and solubility was determined according to the GC method described in Example 17.
Sample preparation was prepared and analyzed based on the protocols described in Examples 17 and 18.

Data set [3] can be described thus: Stability of aceclidine in F6H8. To be noted: dissolved in F6H8, 25° C., 1, 3, 6, 9 and 12 months. How it is done:
Aceclidine is dissolved in F6H8 as described in Example 17. The level of aceclidine is measured by the GC method at 25° C. at 1, 3, 6, 9 and 12 months. The aceclidine in the formulation is defined as stable if the level is maintained between 90-110% of the original level.

The nature of data set [4]: Solubility of Acoltremon (AR-15512) in exemplary formulations. From the text:
(§1) Time (min) % Mobile Phase A % Mobile Phase B

The nature of data set [5]: Solubility of axitinib in exemplary formulations. How it is done: Mobile phase A: 0.05% TFA-H2O
Mobile phase B: 0.05% TFA-Acetonitrile
Flow rate: 1.0 mL/min Wavelength: 362 nm
Injection volume: 30 μL Column temperature: 40° C.

The nature of data set [6]: Solubility of lifitegrast in exemplary formulations. How it is done:
Chromatographic column: Agilent ZORBAX SB-C18, 4.6*250 mm, 5 μm Mobile phase A: 0.1% Phosphoric Acid-H2O Mobile phase B: Acetonitrile Flow rate: 1.0 mL/min Wavelength: UV/220 nm Injection volume: 10 μL Column temperature: 35° C.
Since the auxiliary peaks of MCM and MC8-2 overlapped with the main peaks in the above gradient method, the analytical methods for MCM and MC8-2 were adjusted as follows: Chromatographic column: Agilent ZORBAX SB-C18, 4.6*250 mm, 5 μm Mobile phase A: 0.1% Phosphoric Acid-H2O Mobile phase B: Acetonitrile Flow rate: 1.0 mL/min Wavelength: UV/220 nm Injection volume: 10 μL Column temperature: 35° C.

Data set [7] can be described thus: Solubility of lotilaner in exemplary formulations.
Description: as §1

Data set [8] is described as follows: Solubility of ivermectin (CBT-273) in exemplary formulations.
Description: The obtained mixture was filtered through 0.22 μm filter and the filtrated solution was analyzed by GC.
Shim-pack GIST C18 5 μm, 4.6 (ID) mm×250 mm (L), 5 μm Mobile phase: Acetonitrile: Methanol: Water=55:35:10 (v:v:v) Flow rate: 1.0 mL/min Wavelength: 214 nm Injection volume: 10 μL Column temperature: 45° C.

`CC(=O)OC1CN2CCC1CC2` (stereo not shown) [Aceclidine, aceclidine]: the “aceclidine concentration that is stable and uniform” value in data set [1] (10% Captex 355/F6H8, RT) is listed as 1.5%-2% is stable; in data set [1] (10% Captex 8000/F6H8, RT), 2% is stable and. Also, the Aceclidine solubility is listed as > 21.4(Unsaturated), mg/g in data set [1] (10% Captex 355/F6H8, RT); > 17.0(Unsaturated), mg/g in data set [1] (10% Captex 8000/F6H8, RT); > 17.0(Unsaturated) mg/g in data set [1] (10% MCT/90% F6H8, RT); > 66.7(Unsaturated) mg/g in data set [1] (100% Captex 300, RT); > 203.4(Unsaturated) mg/g in data set [1] (100% Captex 355, RT); > 164.0(Unsaturated) mg/g in data set [1] (100% Captex 8000, RT). In data set [1] (100% MCT, RT), the Aceclidine solubility is > 320.9(Unsaturated) mg/g. For the same compound, the “solubility of aceclidine in 10% MCT in F6H8” value in data set [2] is on record as “around 2 % (w/v)”. In addition, the “solubility of aceclidine in F6H8” value in data set [2] is on record as “around 1.5 % (w/v)”. In addition, the “solubility of aceclidine in MCT” value in data set [2] is given as “around 5 % (w/v)”. For the same compound, the “stability (level maintained between 90-110% of the original level)” value in data set [3] is “remains stable”.

As for `COc1ccc(NC(=O)[C@@H]2C[C@H](C)CC[C@H]2C(C)C)cc1` [Acoltremon (AR-15512), (1R,2S,5R)—N-(4-methoxyphenyl)-5-methyl-2-(1-methylethyl) cyclohexanecarboxamide], the “Acoltremon (AR-15512) Saturated solubility” value (from here on “Acoltremon”) came out at 0.21 mg/g in data set [4] (10% Captex 170/90% F4H5, RT); 0.36 mg/g in data set [4] (10% Captex 200P / 90% F4H5, RT); 0.36 mg/g in data set [4] (10% Captex 200P/90% F6H8, RT); 0.7 mg/g in data set [4] (10% Captex 355/90% F6H8, RT); 0.28 mg/g in data set [4] (10% MCT/90% F4H5, RT); 0.29 mg/g in data set [4] (10% MCT/90% F6H8, RT). Besides, the “Acoltremon” value in data set [4] (20% Captex 170/80% F4H5, RT) was found to be 0.42 mg/g; in data set [4] (20% Captex 170/80% F6H8, RT) it was 0.43 mg/g; in data set [4] (20% Captex 200P / 80% F4H5, RT), 0.66 mg/g; in data set [4] (20% Captex 200P / 80% F6H8, RT) it was 0.53 mg/g; in data set [4] (20% MCT/80% F4H5, RT), 0.55 mg/g; in data set [4] (20% MCT/80% F6H8, RT), 0.55 mg/g. For the same compound, the “Acoltremon” value in data set [4] (100% Captex 170, RT) is 2.03 mg/g; in data set [4] (100% Captex 200P, RT), 3.21 mg/g; in data set [4] (100% Captex 8000, RT) it was 1.84 mg/g; in data set [4] (100% F4H5, RT) it was 0.064 mg/g; in data set [4] (100% F6H8, RT) it was 0.055 mg/g; in data set [4] (100% MCT, RT), 3.12 mg/g.

On to `CNC(=O)c1ccccc1Sc1ccc2c(/C=C/c3ccccn3)n[nH]c2c1` [Axitinib], for which the “Axitinib Saturated solubility” value in data set [5] (100% Captex 300, RT) is reported as 0.022 mg/g; in data set [5] (100% Captex 355, RT), 0.03 mg/g; in data set [5] (100% Captex 8000, RT) it was 0.1 mg/g.

For `CS(=O)(=O)c1cccc(C[C@H](NC(=O)c2c(Cl)cc3c(c2Cl)CCN(C(=O)c2ccc4ccoc4c2)C3)C(=O)O)c1` [Lifitegrast, lifitegrast], the “Lifitegrast Saturated solubility” value in data set [6] (10% MCT/90% F6H8, RT) is 0 mg/g; in data set [6] (20% MCT/80% F6H8, RT) it was 0 mg/g; in data set [6] (50% MCT/50% F6H8, RT), 0.004 mg/g; in data set [6] (100% Captex 300, RT) it was 0.28 mg/g; in data set [6] (100% Captex 355, RT), 0.27 mg/g; in data set [6] (100% Captex 8000, RT), 0.56 mg/g.

Regarding `Cc1cc(C2=NO[C@@](c3cc(Cl)c(Cl)c(Cl)c3)(C(F)(F)F)C2)sc1C(=O)NCC(=O)NCC(F)(F)F` [Lotilaner, lotilaner], the Lotilaner solubility in data set [7] (10% Captex 300/90% F6H8, RT) is 1.21 mg/g; in data set [7] (10% Captex 8000/90% F6H8, RT) it was 3.47 mg/g; in data set [7] (10% MCT/90% F6H8, RT), 2.7 mg/g; in data set [7] (20% MCT/80% F6H8, RT), 5.42 mg/g; in data set [7] (100% Captex 300 (Unsaturated), RT), more than 11.32 mg/g; in data set [7] (100% Captex 8000 (Unsaturated), RT) it was more than 29.04 mg/g. The Lotilaner solubility in data set [7] (100% MCT (Unsaturated), RT) was more than 25.47 mg/g.

Consider ivermectin [Ivermectin (CBT-273)], for which the “Ivermectin (CBT-273) Saturated solubility” value in data set [8] (10% Captex 300/90% F6H8, RT) is listed as 1.35 mg/g; in data set [8] (10% Captex 355/90% F4H5, RT), 0.61 mg/g; in data set [8] (10% Captex 355/90% F6H8, RT), 0.46 mg/g; in data set [8] (10% Captex 8000/90% F6H8, RT) it was 1.36 mg/g; in data set [8] (20% Captex 355/80% F4H5, RT), 3.03 mg/g; in data set [8] (20% Captex 355/80% F6H8, RT), 3.87 mg/g. Further, the “Ivermectin (CBT-273) Saturated solubility” value in data set [8] (100% Captex 355, RT) amounted to 26.51 mg/g; in data set [8] (100% Captex 8000, RT), 34.62 mg/g; in data set [8] (100% Captex ® 300, RT), 27.91 mg/g; in data set [8] (100% F4H5, RT) it was 0.12 mg/g; in data set [8] (100% F6H8, RT) it was 0.04 mg/g.

These data come from patent US20260130896A1, “COMPOSITIONS AND METHODS FOR DELIVERY OF OPHTHALMOLOGICAL ACTIVES” (ADS Therapeutics LLC, priority 2023, published 2026).
